By IC50 is commonly meant the concentration that inhibits the measured activity by half.

Data set [1] concerns RAW264.7. Briefly: Inhibition of NF-kappaB transcriptional activity in LPS-stimulated mouse RAW264.7 cells treated for 1 hr before LPS challenge measured after 6 hrs by luciferase reporter gene assay. In kind it is cell-based. On the technique in general: Reporter assays use an easily measured gene product as a stand-in for the process of interest.
Data set [2] concerns Radical scavenging activity. Briefly: Antioxidant activity assessed as DPPH radical scavenging activity. It counts as functional.
Data set [3] in a line: Antioxidant activity assessed as peroxynitrite radical scavenging activity. It counts as functional.
For data set [4], the system named is RAW264.7. Briefly: Cytotoxicity against mouse RAW264.7 cells assessed as reduction of cell viability at 30 ug/ml after 48 hrs by trypan blue exclusion assay. It counts as cell-based. To be noted: raw264.7, 48 h.
Data set [5] concerns RAW264.7. Nature of the data set: Growth inhibition of mouse RAW264.7 cells at 10 ug/ml after 48 hrs by trypan blue exclusion assay. It counts as cell-based. To be noted: raw264.7, 48 h.
In data set [6] the test system is RAW264.7. Briefly: Antiinflammatory activity in mouse RAW264.7 cells assessed as inhibition of LPS-stimulated nitric oxide production treated for 1 hr before LPS challenge measured after 24 hrs by Griess reagent method. In kind it is functional, cell-based.
For data set [7], the system named is RAW264.7. Briefly: Antiinflammatory activity in mouse RAW264.7 cells assessed as inhibition of LPS-stimulated iNOS expression treated for 1 hr before LPS challenge measured after 24 hrs by immunoblotting. It counts as functional, cell-based.
The test system of data set [8] is RAW264.7. Briefly: Antiinflammatory activity in mouse RAW264.7 cells assessed as inhibition of LPS-stimulated nitric oxide production at 10 ug/ml treated for 1 hr before LPS challenge measured after 24 hrs by Griess reagent method. It counts as functional, cell-based. (In general: The Griess reaction detects nitrite, a stable product of nitric oxide.)

Each structure is given as a SMILES string. The source made the active and inactive calls. The calls are words filed in the database; no cut-off is given here.

For `O=C(NC1=CC(=O)[C@H]2O[C@H]2[C@H]1O)c1ccccc1O` [DEHYDROXYMETHYLEPOXYQUINOMICIN], the result in the data set on RAW264.7 [1] was Active. Further, the figures for the IC50 in data set [2] and in data set [3] were 57 µM and 52.6 µM, respectively.
For `O=C1C=C(CO)[C@H](O)[C@@H]2O[C@H]12` [PARASITENONE], the Activity entry was “Active” in the data set on RAW264.7 [4], “Active” in the data set on RAW264.7 [5], “Dose-dependent effect” in the data set on RAW264.7 [6] and “Dose-dependent effect” in the data set on RAW264.7 [7]. The outcome with RAW264.7 [1] and with RAW264.7 [8] was Active.
With `O=C(O)c1ccccc1O`, the result with RAW264.7 [8] was inactive.

Values taken from ChEMBL document CHEMBL1155966, “Efficient synthesis of (+/-)-parasitenone, a novel inhibitor of NF-kappaB” (Bioorg Med Chem Lett, 2009).
